Measurements as given in patent US20260209203A1, “Heterocyclic Compounds as Modulators of S1P5” (Celgene Corporation, priority 2022, published 2026).

Target: S1P5 (Homo sapiens, UniProt Q9H228)
Assay: [35S]-GTPγS functional binding assay on CHO-S1P5 membranes
Assay type: biochemical
Conditions: membranes of CHO cells expressing recombinant S1P5; measure of S1P5 agonism
Experimental: CHO cells expressing recombinant S1P5 receptors were cultured in 500 cm^2 culture trays and, once confluent, rinsed and detached with cell-lifting buffer (10 mM HEPES, 154 mM NaCl, 6.85 mM EDTA, pH 7.4). Cells were then pelleted by centrifugation, resuspended, and homogenized in membrane preparation buffer (10 mM HEPES and 10 mM EDTA, pH 7.4) using a Polytron PT 1200E homogenizer (Kinematica, Luzern, Switzerland). Cellular proteins were pelleted by centrifugation at 48,000×g at 4° C. for 30 minutes. The resulting supernatant was discarded, and the pellet was re-suspended again in membrane preparation buffer, homogenized for a second time, and then centrifuged again as described above. The final cellular protein pellet was suspended in ice cold resuspension buffer (10 mM HEPES and 0.1 mM EDTA, pH 7.4), divided into aliquots, and stored at −80° C. until use.
Functional binding assays for [^35S]-GTPγS were performed in 96-well non-binding surface plates with a final volume of 200 μL. The test compounds were serially diluted in DMSO and added to assay plates using a Tecan D300E digital printer with a total volume of 0.4 μL. The control sphingosine-1-phosphate (S1P) was prepared separately by preparing a 400 μM stock solution from a 100 nmol pellet of SIP in 10 mM Na2CO3 with 2% β-cyclodextrin. The serial dilution of S1P was done using complete assay buffer (20 mM HEPES, 10 mM MgCl2, 100 mM NaCl, 1 mM EDTA, 0.1% fatty acid free bovine serum albumin (BSA), and 30 μg/mL saponin, pH 7.4) and transferred to wells already containing 0.4 μL DMSO. All the wells were then loaded to a total volume of 40 μL of complete assay buffer, except the non-specific binding (NSB) wells. For NSB wells, 40 μL/well of 50 μM GTPγS (Sigma Aldrich, cat #G8634, St. Louis, MO) was added to wells containing 0.4 μL of DMSO. The assay was started by the addition of 120 μL/well of CHO—S1P receptor membrane solution containing 40 μg/mL of membrane protein, 16.67 μM guanosine diphosphate (GDP; Sigma Aldrich, cat #G7127, St. Louis, MO), and 2.5 mg/mL of WGA PVT SPA beads in complete buffer. Assay plates were then sealed and incubated at room temperature with gentle agitation for 30 minutes. Next, 40 μL/well of 1 nM of [^35S]-GTPγS (PerkinElmer, cat #NEG030X250UC, Waltham, MA) in basic assay buffer (20 mM HEPES, 10 mM MgCl2, 100 mM NaCl, and 1 mM EDTA, pH7.4) was added to the assay plates to yield a final concentration of 200 pM and the plates were further incubated for 40 minutes at room temperature with gentle agitation. The assay was terminated by centrifugation of the plates at 1000 rpm for 3 minutes using an Eppendorf 5810R centrifuge (Eppendorf, Hamburg, Germany) and G protein bound radioactivity was quantitated using a MicroBeta2 microplate scintillation counter (PerkinElmer, Waltham, MA). As G protein bound radioactivity directly correlates to receptor activation and coupling to the G protein, this assay is a measure of S1P5 agonism.

Sequence of S1P5 (Q9H228 whole entry, species assumed): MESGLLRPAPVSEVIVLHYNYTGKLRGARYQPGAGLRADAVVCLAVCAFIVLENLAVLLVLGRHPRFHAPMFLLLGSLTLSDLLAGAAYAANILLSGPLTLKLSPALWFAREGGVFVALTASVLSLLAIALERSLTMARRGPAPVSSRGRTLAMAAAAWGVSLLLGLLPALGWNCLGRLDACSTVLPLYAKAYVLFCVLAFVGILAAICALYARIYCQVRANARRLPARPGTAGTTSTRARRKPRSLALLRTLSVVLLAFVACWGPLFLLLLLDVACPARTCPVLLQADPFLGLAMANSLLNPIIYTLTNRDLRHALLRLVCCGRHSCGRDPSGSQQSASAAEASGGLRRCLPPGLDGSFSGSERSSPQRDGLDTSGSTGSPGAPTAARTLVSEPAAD

Structure (SMILES)	EC50 [nM]
CNC(=O)C1CCN(Cc2c(C)cc(C3CN(c4c(Cl)cccc4Cl)C3)cc2C)CC1 [Compound 1, 1-(4-(1-(2,6-dichlorophenyl)-azetidin-3-yl)-2,6-dimethyl-benzyl)-N-methylpiperidine-4-carboxamide]	1 to 10
Cc1cc(C2CN(c3c(Cl)cccc3Cl)C2)cc(C)c1CN1CCC(C(=O)NC2CC2)CC1 [Compound 4, N-cyclopropyl-1-(4-(1-(2,6-dichlorophenyl)-azetidin-3-yl)-2,6-dimethylbenzyl)-piperidine-4-carboxamide]	10 to 100
Cc1cc(C2CN(c3c(Cl)cccc3Cl)C2)cc(C)c1CN1CCC(C(=O)NCC2CC2)CC1 [Compound 5, N-(cyclopropylmethyl)-1-(4-(1-(2,6-dichlorophenyl)-azetidin-3-yl)-2,6-dimethyl-benzyl)piperidine-4-carbox-amide]	10 to 100
Cc1cc(C2CN(c3c(Cl)cccc3Cl)C2)cc(C)c1CN1CCC(C(=O)NC2CCC(O)CC2)CC1 (centres unmarked) [Compound 7, 1-(4-(1-(2,6-dichlorophenyl)-azetidin-3-yl)-2,6-dimethyl-benzyl)-N-(4-hydroxycyclo-hexyl)-piperidine-4-carbox-amide]	100 to 1000
Cc1cc(C2CN(c3c(Cl)cccc3Cl)C2)cc(C)c1CN1CCC(C(=O)N2CCN(C)CC2)CC1 [Compound 8, (1-(4-(1-(2,6-dichlorophen-yl)azetidin-3-yl)-2,6-dimeth-ylbenzyl)-piperidin-4-yl)(4-methyl-piperazin-1-yl)-methanone]	100 to 1000
Cc1cc(C2CN(c3c(Cl)cccc3Cl)C2)cc(C)c1CN1CCC(C(=O)N2CCOCC2)CC1 [Compound 9, (1-(4-(1-(2,6-dichlorophen-yl)azetidin-3-yl)-2,6-dimeth-ylbenzyl)-piperidin-4-yl)-(morpholino)methanone]	100 to 1000
Cc1cc(C2CN(c3c(Cl)cccc3Cl)C2)cc(C)c1CN1CCC(C(=O)N(C)CCO)CC1 [Compound 11, 1-(4-(1-(2,6-dichlorophenyl)-azetidin-3-yl)-2,6-dimethyl-benzyl)-N-(2-hydroxyethyl)-N-methylpiperidine-4-carbox-amide]	100 to 1000
Cc1cc(C2CN(c3c(Cl)cccc3Cl)C2)cc(C)c1CN1CCC(C(=O)N2CCC(O)CC2)CC1 [Compound 12, (1-(4-(1-(2,6-dichlorophenyl)-azetidin-3-yl)-2,6-dimethyl-benzyl)-piperidin-4-yl)(4-hydroxy-piperidin-1-yl)-methanone]	100 to 1000
Cc1cc(C2CN(c3c(Cl)cccc3Cl)C2)cc(C)c1CN1CCC(C(=O)N(C)CCN(C)C)CC1 [Compound 13, 1-(4-(1-(2,6-dichlorophenyl)-azetidin-3-yl)-2,6-dimethyl-benzyl)-N-(2-(dimethyl-amino)ethyl)-N-methylpiper-idine-4-carboxamide]	100 to 1000
COC1CCN(C(=O)C2CCN(Cc3c(C)cc(C4CN(c5c(Cl)cccc5Cl)C4)cc3C)CC2)CC1 [Compound 14, (1-(4-(1-(2,6-dichlorophenyl)-azetidin-3-yl)-2,6-dimethyl-benzyl)-piperidin-4-yl)(4-methoxy-piperidin-1-yl)-methanone]	100 to 1000
Cc1cc(C2CN(c3c(Cl)cccc3Cl)C2)cc(C)c1CN1CCC(C(=O)NC2CCCCC2)CC1 [Compound 17, N-cyclohexyl-1-(4-(1-(2,6-dichlorophenyl)azetidin-3-yl)-2,6-dimethylbenzyl)-piperidine-4-carboxamide]	1000 to 10000
Cc1cc(C2CN(c3c(Cl)cccc3Cl)C2)cc(C)c1CN1CCC(C(=O)NCC2CCCCC2)CC1 [Compound 18, N-(cyclohexylmethyl)-1-(4-(1-(2,6-dichlorophenyl)-azetidin-3-yl)-2,6-dimethyl-benzyl)piperidine-4-carbox-amide]	1000 to 10000
Cc1cc(C2CN(c3c(Cl)cccc3Cl)C2)cc(C)c1CN1CCC(C(=O)NCCN2CCCC2)CC1 [Compound 19, 1-(4-(1-(2,6-dichlorophenyl)-azetidin-3-yl)-2,6-dimethyl-benzyl)-N-(2-(pyrrolidin-1-yl)ethyl)-piperidine-4-carbox-amide]	1000 to 10000
Cc1cc(C2CN(c3c(Cl)cccc3Cl)C2)cc(C)c1CN1CCC(C(=O)N2CCC(N(C)C)CC2)CC1 [Compound 22, (1-(4-(1-(2,6-dichlorophenyl)-azetidin-3-yl)-2,6-dimethyl-benzyl)piperidin-4-yl)(4-(dimethylamino)piperidin-1-yl)methanone]	1000 to 10000
Cc1cc(C2CN(c3c(Cl)cccc3Cl)C2)cc(C)c1CN1CCC(C(=O)N(C)CC(C)C)CC1 [Compound 23, 1-(4-(1-(2,6-dichlorophenyl)-azetidin-3-yl)-2,6-dimethyl-benzyl)-N-isobutyl-N-meth-ylpiperidine-4-carboxamide]	1000 to 10000
Cc1cc(C2CN(c3c(Cl)cccc3Cl)C2)cc(C)c1CN1CCC(C(=O)N(C)C2CC2)CC1 [Compound 25, N-cyclopropyl-1-(4-(1-(2,6-dichlorophenyl)-azetidin-3-yl)-2,6-dimethylbenzyl)-N-methylpiperidine-4-carbox-amide]	1000 to 10000

Results, then the molecule that gave them:

EC50 [nM]	Structure (SMILES)
1 to 10	Cc1cc(C2CN(c3c(Cl)cccc3Cl)C2)cc(C)c1CN1CCC(C(=O)N(C)C)CC1 [Compound 2, 1-(4-(1-(2,6-dichlorophenyl)-azetidin-3-yl)-2,6-dimethyl-benzyl)-N,N-dimethylpiper-idine-4-carboxamide]
1 to 10	COCCNC(=O)C1CCN(Cc2c(C)cc(C3CN(c4c(Cl)cccc4Cl)C3)cc2C)CC1 [Compound 3, 1-(4-(1-(2,6-dichlorophenyl)-azetidin-3-yl)-2,6-dimethyl-benzyl)-N-(2-methoxyethyl)-piperidine-4-carboxamide]
10 to 100	Cc1cc(C2CN(c3c(Cl)cccc3Cl)C2)cc(C)c1CN1CCC(C(=O)NC2CCC2)CC1 [Compound 6, N-cyclobutyl-1-(4-(1-(2,6-dichlorophenyl)azetidin-3-yl)-2,6-dimethylbenzyl)-piperidine-4-carboxamide]
100 to 1000	Cc1cc(C2CN(c3c(Cl)cccc3Cl)C2)cc(C)c1CN1CCC(C(=O)NCC(C)C)CC1 [Compound 10, 1-(4-(1-(2,6-dichlorophenyl)-azetidin-3-yl)-2,6-dimethyl-benzyl)-N-isobutylpiperidine-4-carboxamide]
1000 to 10000	Cc1cc(C2CN(c3c(Cl)cccc3Cl)C2)cc(C)c1CN1CCC(C(=O)NC2CCCC2)CC1 [Compound 15, N-cyclopentyl-1-(4-(1-(2,6-dichlorophenyl)-azetidin-3-yl)-2,6-dimethylbenzyl)-piperidine-4-carboxamide]
1000 to 10000	Cc1cc(C2CN(c3c(Cl)cccc3Cl)C2)cc(C)c1CN1CCC(C(=O)N(C)C(C)C)CC1 [Compound 16, 1-(4-(1-(2,6-dichlorophenyl)-azetidin-3-yl)-2,6-dimethyl-benzyl)-N-isopropyl-N-meth-yl-piperidine-4-carboxamide]
1000 to 10000	Cc1cc(C2CN(c3c(Cl)cccc3Cl)C2)cc(C)c1CN1CCC(C(=O)NC2CCC(N(C)C)CC2)CC1 (centres unmarked) [Compound 20, 1-(4-(1-(2,6-dichlorophenyl)-azetidin-3-yl)-2,6-dimethyl-benzyl)-N-(4-(dimethyl-amino)-cyclohexyl)piper-idine-4-carboxamide]
1000 to 10000	Cc1cc(C2CN(c3c(Cl)cccc3Cl)C2)cc(C)c1CN1CCC(C(=O)NCCC(C)C)CC1 [Compound 21, 1-(4-(1-(2,6-dichlorophenyl)-azetidin-3-yl)-2,6-dimethyl-benzyl)-N-isopentyl-piper-idine-4-carboxamide]
1000 to 10000	Cc1cc(C2CN(c3c(Cl)cccc3Cl)C2)cc(C)c1CN1CCC(C(=O)N2CCC(O)C2)CC1 (centres unmarked) [Compound 24, (1-(4-(1-(2,6-dichlorophenyl)-azetidin-3-yl)-2,6-dimethyl-benzyl)-piperidin-4-yl)(3-hydroxypyrrolidin-1-yl)-methanone]
1000 to 10000	Cc1cc(C2CN(c3c(Cl)cccc3Cl)C2)cc(C)c1CN1CCC(C(=O)N2CCCCC2)CC1 [Compound 26, (1-(4-(1-(2,6-dichlorophenyl)-azetidin-3-yl)-2,6-dimethyl-benzyl)-piperidin-4-yl)(piper-idin-1-yl)methanone]
